Test results from PubChem BioAssay (NCI).
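96-well plates; 48 h exposure; 5 concentrations. Endpoints by linear interpolation between flanking doses. Not reached: highest tested concentration assigned. GI50 marks 50% less growth. Definition used: TGI = concentration required for complete inhibition of growth.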

What was measured:
Experiment in all cases: DTP human tumour cell line panel, 48 h
MCF7 breast = test system: MCF7 breast
MDA-MB-231 breast = test system: MDA-MB-231 breast
U251 CNS = test system: U251 CNS
SN12C renal = test system: SN12C renal
HS 578T breast = test system: HS 578T breast
HOP-62 NSCLC = test system: HOP-62 NSCLC
OVCAR-5 ovarian = test system: OVCAR-5 ovarian
NCI-H23 lung = test system: NCI-H23 lung
HT29 colon = test system: HT29 colon
CCRF-CEM leukemia = test system: CCRF-CEM leukemia
ACHN renal = test system: ACHN renal
OVCAR-4 ovarian = test system: OVCAR-4 ovarian
RXF 393 renal = test system: RXF 393 renal
NCI/ADR-RES ovarian = test system: NCI/ADR-RES ovarian
SK-OV-3 ovarian = test system: SK-OV-3 ovarian
HL-60(TB) leukemia = test system: HL-60(TB) leukemia
UACC-257 melanoma = test system: UACC-257 melanoma
HCT-15 colon = test system: HCT-15 colon
NCI-H226 lung = test system: NCI-H226 lung
COLO 205 colon = test system: COLO 205 colon
KM12 colon = test system: KM12 colon
SW-620 colon = test system: SW-620 colon
MDA-MB-435 = test system: MDA-MB-435
HCC-2998 colon = test system: HCC-2998 colon
UACC-62 melanoma = test system: UACC-62 melanoma
SF-295 CNS = test system: SF-295 CNS
MOLT-4 leukemia = test system: MOLT-4 leukemia
HOP-92 NSCLC = test system: HOP-92 NSCLC
UO-31 renal = test system: UO-31 renal
CAKI-1 renal = test system: CAKI-1 renal
NCI-H522 lung = test system: NCI-H522 lung
LOX IMVI melanoma = test system: LOX IMVI melanoma
IGROV1 ovarian = test system: IGROV1 ovarian
SK-MEL-5 melanoma = test system: SK-MEL-5 melanoma
RPMI-8226 leukemia = test system: RPMI-8226 leukemia
EKVX NSCLC = test system: EKVX NSCLC
SNB-19 CNS = test system: SNB-19 CNS
DU-145 prostate = test system: DU-145 prostate
SF-539 CNS = test system: SF-539 CNS
M14 melanoma = test system: M14 melanoma
SNB-75 CNS = test system: SNB-75 CNS
TK-10 renal = test system: TK-10 renal
T-47D breast = test system: T-47D breast
SK-MEL-28 melanoma = test system: SK-MEL-28 melanoma
BT-549 breast = test system: BT-549 breast
SR leukemia = test system: SR leukemia
MALME-3M melanoma = test system: MALME-3M melanoma
786-0 renal = test system: 786-0 renal
SK-MEL-2 melanoma = test system: SK-MEL-2 melanoma
OVCAR-8 ovarian = test system: OVCAR-8 ovarian
A549 NSCLC = test system: A549 NSCLC
HCT-116 colon = test system: HCT-116 colon
PC-3 prostate = test system: PC-3 prostate
SF-268 CNS = test system: SF-268 CNS
NCI-H460 lung = test system: NCI-H460 lung
OVCAR-3 ovarian = test system: OVCAR-3 ovarian
K-562 leukemia = test system: K-562 leukemia
A498 renal = test system: A498 renal

Work on `CCCCCCC/C(=N\N=C(N)N)c1ccc(O)cc1` yielded a GI50 (MCF7 breast) of 1.71 µM, a TGI (MCF7 breast) of 4.43 µM and a GI50 (MDA-MB-231 breast) of 1.67 µM. For the same molecule, the TGI (MDA-MB-231 breast) was 3.54 µM, the GI50 (U251 CNS) was 1.54 µM and the TGI (U251 CNS) was 2.87 µM. The GI50 (SN12C renal) was 2.76 µM, the TGI (SN12C renal) was 11.8 µM and the GI50 (HS 578T breast) was 3.14 µM. It also gave a TGI (HS 578T breast) of 24.7 µM, a GI50 (HOP-62 NSCLC) of 1.81 µM and a TGI (HOP-62 NSCLC) of 3.81 µM. For the same molecule, the GI50 (OVCAR-5 ovarian) was 3.83 µM, the TGI (OVCAR-5 ovarian) was 15.3 µM and the GI50 (NCI-H23 lung) was 2.6 µM. For the same molecule, the TGI (NCI-H23 lung) was 10.9 µM, the GI50 (HT29 colon) was 2.35 µM and the TGI (HT29 colon) was 6.25 µM. The GI50 (CCRF-CEM leukemia) was 1.96 µM, the TGI (CCRF-CEM leukemia) was 5.77 µM and the GI50 (ACHN renal) was 2.25 µM. It also gave a TGI (ACHN renal) of 5.13 µM, a GI50 (OVCAR-4 ovarian) of 1.65 µM and a TGI (OVCAR-4 ovarian) of 12.3 µM. It also gave a GI50 (RXF 393 renal) of 1.94 µM, a TGI (RXF 393 renal) of 5.16 µM and a GI50 (NCI/ADR-RES ovarian) of 10 µM. The TGI (NCI/ADR-RES ovarian) was 23.2 µM, the GI50 (SK-OV-3 ovarian) was 3.04 µM and the TGI (SK-OV-3 ovarian) was 11.2 µM. The GI50 (HL-60(TB) leukemia) was 1.75 µM, the TGI (HL-60(TB) leukemia) was 3.65 µM and the GI50 (UACC-257 melanoma) was 1.76 µM. For the same molecule, the TGI (UACC-257 melanoma) was 3.81 µM, the GI50 (HCT-15 colon) was 3.48 µM and the TGI (HCT-15 colon) was 12.9 µM. The GI50 (NCI-H226 lung) was 2.2 µM, the TGI (NCI-H226 lung) was 6.63 µM and the GI50 (COLO 205 colon) was 1.74 µM. It also gave a TGI (COLO 205 colon) of 3.16 µM, a GI50 (KM12 colon) of 1.73 µM and a TGI (KM12 colon) of 3.52 µM. It also gave a GI50 (SW-620 colon) of 1.65 µM, a TGI (SW-620 colon) of 3.35 µM and a GI50 (MDA-MB-435) of 1.71 µM. It also gave a TGI (MDA-MB-435) of 3.44 µM, a GI50 (HCC-2998 colon) of 1.62 µM and a TGI (HCC-2998 colon) of 3 µM. The GI50 (UACC-62 melanoma) was 1.55 µM, the TGI (UACC-62 melanoma) was 3.26 µM and the GI50 (SF-295 CNS) was 1.77 µM. It also gave a TGI (SF-295 CNS) of 4.46 µM, a GI50 (MOLT-4 leukemia) of 1.67 µM and a TGI (MOLT-4 leukemia) of 4.76 µM. For the same molecule, the GI50 (HOP-92 NSCLC) was 0.692 µM, the TGI (HOP-92 NSCLC) was 3.19 µM and the GI50 (UO-31 renal) was 2.38 µM. The TGI (UO-31 renal) was 12.1 µM, the GI50 (CAKI-1 renal) was 2.8 µM and the TGI (CAKI-1 renal) was 11.8 µM. The GI50 (NCI-H522 lung) was 1.62 µM, the TGI (NCI-H522 lung) was 3.48 µM and the GI50 (LOX IMVI melanoma) was 1.62 µM. It also gave a TGI (LOX IMVI melanoma) of 2.97 µM, a GI50 (IGROV1 ovarian) of 2.28 µM and a TGI (IGROV1 ovarian) of 10.7 µM. For the same molecule, the GI50 (SK-MEL-5 melanoma) was 1.5 µM, the TGI (SK-MEL-5 melanoma) was 2.82 µM and the GI50 (RPMI-8226 leukemia) was 1.71 µM. The TGI (RPMI-8226 leukemia) was 4.3 µM, the GI50 (EKVX NSCLC) was 2.71 µM and the TGI (EKVX NSCLC) was 14 µM. The GI50 (SNB-19 CNS) was 2.13 µM, the TGI (SNB-19 CNS) was 10.6 µM and the GI50 (DU-145 prostate) was 3.15 µM. It also gave a TGI (DU-145 prostate) of 11 µM, a GI50 (SF-539 CNS) of 1.91 µM and a TGI (SF-539 CNS) of 4.4 µM. It also gave a GI50 (M14 melanoma) of 1.71 µM, a TGI (M14 melanoma) of 3.18 µM and a GI50 (SNB-75 CNS) of 1.58 µM. It also gave a TGI (SNB-75 CNS) of 5.41 µM, a GI50 (TK-10 renal) of 5.53 µM and a TGI (TK-10 renal) of 18 µM. The GI50 (T-47D breast) was 1.87 µM, the TGI (T-47D breast) was 4.89 µM and the GI50 (SK-MEL-28 melanoma) was 1.73 µM. The TGI (SK-MEL-28 melanoma) was 3.28 µM, the GI50 (BT-549 breast) was 2.41 µM and the TGI (BT-549 breast) was 8.65 µM. The GI50 (SR leukemia) was 1.67 µM, the TGI (SR leukemia) was 3.96 µM and the GI50 (MALME-3M melanoma) was 1.77 µM. It also gave a TGI (MALME-3M melanoma) of 3.52 µM, a GI50 (786-0 renal) of 2.16 µM and a TGI (786-0 renal) of 5.31 µM. For the same molecule, the GI50 (SK-MEL-2 melanoma) was 1.96 µM, the TGI (SK-MEL-2 melanoma) was 3.85 µM and the GI50 (OVCAR-8 ovarian) was 2.12 µM. It also gave a TGI (OVCAR-8 ovarian) of 5.26 µM, a GI50 (A549 NSCLC) of 2.88 µM and a TGI (A549 NSCLC) of 17.2 µM. For the same molecule, the GI50 (HCT-116 colon) was 1.67 µM, the TGI (HCT-116 colon) was 3.41 µM and the GI50 (PC-3 prostate) was 2.17 µM. For the same molecule, the TGI (PC-3 prostate) was 8.92 µM, the GI50 (SF-268 CNS) was 1.77 µM and the TGI (SF-268 CNS) was 5.31 µM. The GI50 (NCI-H460 lung) was 1.82 µM, the TGI (NCI-H460 lung) was 3.68 µM and the GI50 (OVCAR-3 ovarian) was 2.23 µM. The TGI (OVCAR-3 ovarian) was 7.84 µM.
`COc1ccc2c(c1)-c1c(c3cc(OC)ccc3n1CCN1CCOCC1)CC2` gave a TGI (MCF7 breast) of over 100 µM, a TGI (MDA-MB-231 breast) of over 100 µM and a TGI (U251 CNS) of over 100 µM. For the same molecule, the TGI (SN12C renal) was over 100 µM, the TGI (HS 578T breast) was 39.9 µM and the TGI (HOP-62 NSCLC) was over 100 µM. The TGI (OVCAR-5 ovarian) was over 100 µM, the TGI (NCI-H23 lung) was over 100 µM and the TGI (HT29 colon) was 28.1 µM. It also gave a TGI (CCRF-CEM leukemia) of 35.6 µM, a TGI (ACHN renal) of over 100 µM and a TGI (OVCAR-4 ovarian) of over 100 µM. The TGI (RXF 393 renal) was 98 µM, the TGI (NCI/ADR-RES ovarian) was 98.4 µM and the TGI (SK-OV-3 ovarian) was over 100 µM. It also gave a TGI (UACC-257 melanoma) of over 100 µM, a TGI (K-562 leukemia) of 36.2 µM and a TGI (A498 renal) of over 100 µM. It also gave a TGI (HCT-15 colon) of 39.4 µM, a TGI (NCI-H226 lung) of 30.6 µM and a TGI (COLO 205 colon) of 37.3 µM. It also gave a TGI (KM12 colon) of over 100 µM, a TGI (SW-620 colon) of over 100 µM and a TGI (MDA-MB-435) of over 100 µM. The TGI (HCC-2998 colon) was 18.5 µM, the TGI (UACC-62 melanoma) was 52.6 µM and the TGI (SF-295 CNS) was 55.2 µM. For the same molecule, the TGI (MOLT-4 leukemia) was 33.6 µM, the TGI (HOP-92 NSCLC) was over 100 µM and the TGI (UO-31 renal) was over 100 µM. For the same molecule, the TGI (CAKI-1 renal) was over 100 µM, the TGI (NCI-H522 lung) was over 100 µM and the TGI (IGROV1 ovarian) was over 100 µM. The TGI (SK-MEL-5 melanoma) was 79.5 µM, the TGI (RPMI-8226 leukemia) was 85.5 µM and the TGI (DU-145 prostate) was over 100 µM. It also gave a TGI (SF-539 CNS) of 93.6 µM, a TGI (M14 melanoma) of 35 µM and a TGI (SNB-75 CNS) of over 100 µM. For the same molecule, the TGI (TK-10 renal) was over 100 µM, the TGI (T-47D breast) was over 100 µM and the TGI (SK-MEL-28 melanoma) was over 100 µM. For the same molecule, the TGI (BT-549 breast) was over 100 µM, the TGI (SR leukemia) was 22 µM and the TGI (MALME-3M melanoma) was 79.2 µM. It also gave a TGI (786-0 renal) of 42.5 µM, a TGI (SK-MEL-2 melanoma) of over 100 µM and a TGI (OVCAR-8 ovarian) of over 100 µM. It also gave a TGI (A549 NSCLC) of over 100 µM, a TGI (HCT-116 colon) of over 100 µM and a TGI (PC-3 prostate) of over 100 µM. The TGI (SF-268 CNS) was over 100 µM, the TGI (NCI-H460 lung) was over 100 µM and the TGI (OVCAR-3 ovarian) was over 100 µM.
